Results published in paper PMC12737779, “Concurrent Assessment of Synthetic and Natural Compounds on the Proliferation of Toxoplasma gondii in In Vitro Models” (Tropical Medicine and Infectious Disease, 2025).
pIC50: −log10 of the molar value.

Tests used:
Vero cells = assay: Cytotoxicity in Vero cells by Alamar Blue assay; type: cell-based, African green monkey; conditions: 24 h
Description: (§1) The Vero cell line was seeded in 96-well plates at approximately 20,000 cells per well until approximately 100% confluence was reached. […] All compounds were evaluated at elevated concentrations, diluted in 1% DMSO, to determine the maximum concentration at which they could remain in solution for experimental purposes. It was observed that most compounds were not fully soluble at 320 µM. […] Consequently, all further experiments were initiated from this concentration. […] Four hours later, fluorescence was measured using a BioTek Synergy HTX plate reader at 530/25 nm excitation and 590/25 nm emission. […] A color change in the growth control well to pink indicated proper cell growth, and no color change in the sterile control well indicated the absence of contaminants. The normalized viability percentages (Y-values) of viable host cells and viable T. gondii GFP RH tachyzoites were calculated from the mean ± standard deviation for each concentration evaluated in triplicate. The concentration values (X-axis) were subjected to logarithmic transformation to fit the data to a sigmoidal curve. The half-maximal cytotoxic concentration (CC50) was estimated as the interpolated concentration value on the X-axis corresponding to the response midway between the fitted top and bottom plateaus of the curve. Similarly, the half-maximal inhibitory concentration (IC50) was determined as the concentration at which the response was halfway between the top and the bottom plateaus. Data analysis and visualization were conducted using GraphPad Prism version 8.4.3 (GraphPad Software, San Diego, CA, USA). The selectivity index, also known as the Therapeutic Index, was calculated using the formula: SI = CC50/IC50.

[1] = tested on: T. gondii RH GFP tachyzoites; assay: T. gondii RH GFP tachyzoite viability assay, 72 h continuous exposure; type: cell-based, Toxoplasma gondii; conditions: for pIC50: 72 h continuous exposure, GFP tachyzoite viability in Vero cells; for SI: CC50/IC50, 72 h continuous exposure
Description: Approximately 10,000 tachyzoites of the T. gondii RH GFP strain were quantified using a hemocytometer and subsequently inoculated into Vero cells at full confluence per well in a 96-well plate using a medium conducive to parasite maintenance. Following our laboratory protocols and the methodologies outlined in previous studies, we routinely utilize an inoculum of 10,000 parasites for the Toxoplasma gondii RH-GFP tachyzoite viability assay, which is conducted over a 72 h duration. This parasite density ensures reliable detection of tachyzoite growth and viability while minimizing the likelihood of detachment or any degree of disruption to the host cell monolayer. Concurrently, derivatives of pyrazoline, pyrazole, and thiazolidinone nucleus compounds were introduced at […], with 1:2 dilutions commencing at 160 μM and decreasing to a minimum concentration of 1.25 μM in triplicate. The controls employed in this experiment included non-infected cells (NC), 10 μM pyrimethamine (Pyr), 1% dimethyl sulfoxide (DMSO), and infected cells without treatment (IC). Seventy-two hours post-infection, each well in the 96-well plate was examined using a 10× objective on the EVOS FL Color Imaging System with the GFP fluorescent light cube, and images were captured approximately at the center of each well. The parasites that glowed green were considered viable, and the percentage of tachyzoite viability was compared with that of the untreated parasites. Subsequently, images were recorded, contrast was adjusted, and a semiquantitative digital analysis was conducted using ImageJ v1.54d and the triangle auto-threshold method to determine the number of viable GFP fluorescent tachyzoites per image, as previously described. The percentage of viable parasites was calculated using the formula: Fluorescence of the sample with treatment URF × 100/fluorescence of the control without treatment, where URF = unit relatives of fluorescence calculated with the formula: (sample fluorescence/fluorescence in blank well) × 100.
(§2) The normalized viability percentages (Y-values) of viable host cells and viable T. gondii GFP RH tachyzoites were calculated from the mean ± standard deviation for each concentration evaluated in triplicate. The concentration values (X-axis) were subjected to logarithmic transformation to fit the data to a sigmoidal curve. The half-maximal cytotoxic concentration (CC50) was estimated as the interpolated concentration value on the X-axis corresponding to the response midway between the fitted top and bottom plateaus of the curve. Similarly, the half-maximal inhibitory concentration (IC50) was determined as the concentration at which the response was halfway between the top and the bottom plateaus. Data analysis and visualization were conducted using GraphPad Prism version 8.4.3 (GraphPad Software, San Diego, CA, USA). The selectivity index, also known as the Therapeutic Index, was calculated using the formula: SI = CC50/IC50.

[2] = tested on: T. gondii RH GFP tachyzoites; assay: T. gondii RH GFP tachyzoite viability following 24 h pretreatment of host cells; type: cell-based, Toxoplasma gondii; conditions: for Host Cell Pre-Treatment SI: CC50/IC50, host cell pre-treatment; for pIC50: Vero cells pretreated 24 h, read 72 h post-infection, read-out: Host Cell Pre-Treatment IC50
Description: Subsequently, 10,000 T. gondii RH GFP tachyzoites were introduced into each well. The experimental controls included non-infected cells (NC), 10 μM pyrimethamine (Pyr), 1% dimethyl sulfoxide (DMSO), and infected cells without treatment (IC). After 24 h of host cell treatment, the medium was replaced with a compound-free medium for parasite maintenance. Seventy-two hours post-infection, each well of the 96-well plate was examined using a 10× objective on an Evos FL Auto Cell Imaging System microscope (Life Technologies, Carlsbad, CA, USA). A semiquantitative digital analysis was conducted using ImageJ v1.54d and the triangle auto-threshold method to quantify the number of viable GFP fluorescent tachyzoites per image, as previously described.
as §2

[3] = tested on: T. gondii RH GFP tachyzoites; assay: T. gondii RH GFP tachyzoite viability following 3 h pretreatment of parasites; type: cell-based, Toxoplasma gondii; conditions: for Tachyzoite Pre-Treatment SI: CC50/IC50, tachyzoite pre-treatment; for pIC50: read-out: Tachyzoite Pre-Treatment IC50
Description: Following treatment, tachyzoites were centrifuged at 712× g for 10 min, and the supernatant was discarded. Fresh medium devoid of compounds was then added to resuspend the parasites. Subsequently, 10,000 pretreated T. gondii RH GFP tachyzoites were introduced into each well of a 96-well plate containing Vero cells at 100% confluence. Seventy-two hours post-infection, each well of the 96-well plate was examined using a 10× objective on an EVOS microscope. Semiquantitative digital analysis was performed using ImageJ v1.54d, employing the triangle auto-threshold method to quantify the number of viable GFP fluorescent tachyzoites per image, as previously described.
as §2

[4] = Cytotoxicity in Vero cells by Alamar Blue assay; type: cell-based, African green monkey; conditions: African green monkey
Description: as §1

[5] = tachyzoites pretreated 3 h, read 72 h post-infection
[6] = Toxoplasma gondii, tachyzoites pretreated 3 h, read 72 h post-infection

Row | Compound | CC50 (Vero cells) [µM] | pIC50 [1] | SI [1] | Host Cell Pre-Treatment SI [2] | pIC50 [2] | Tachyzoite Pre-Treatment SI [3] | pIC50 [3, 5] | CC50 at 24 h [4] [µM] | pIC50 ([1]; Toxoplasma gondii) | pIC50 ([2]; Toxoplasma gondii) | pIC50 ([3]; Toxoplasma gondii) | pIC50 [3, 6]
1 | CC(=NO)C(C)=NN=C1NC(=O)C(=Cc2ccc(O)cc2)S1 [Compound 10] | 61.2 | 5.24 | 10.6 | 3.9 | 4.81 | 12.4 | 5.31 | – | – | – | – | –
2 | CCc1nc(N)nc(N)c1-c1ccc(Cl)cc1 [Pyrimethamine, pyrimethamine, reference compound] | – | – | >666 | >190 | – | >32.4 | – | > 200 | 6.52 | 6.00 | 5.21 | –
3 | COc1ccc(C2CC(c3ccc(O)c(OC)c3)=NN2)cc1 (stereo not shown) [Compound 3] | > 160 | 4.74 | >8.3 | – | – | – | – | – | – | – | – | –
4 | CC(C)(C)n1nc(-c2c[nH]c3ccccc23)c(C#N)c1-c1ccc(Br)cc1 [Compound 8] | > 160 | 4.68 | >7.6 | – | – | – | – | – | – | – | – | –
5 | COc1cc(C2=NNC(c3ccc(F)cc3)C2)ccc1O (stereo not shown) [Compound 1] | 132 | 5.17 | 19.6 | 17.5 | 5.12 | 5.6 | 4.63 | – | – | – | – | –
6 | CC(C)(C)n1nc(-c2c[nH]c3ccccc23)c(C#N)c1-c1c(Cl)cccc1Cl [Compound 5] | > 160 | 4.85 | >11.4 | – | – | – | – | – | – | – | – | –
7 | CC(=N/O)/C(C)=N\N=C1\NC(=O)/C(=C/c2cc3ccccc3[nH]c2=O)S1 [Compound 15] | – | – | >16.8 | >2.9 | – | >39.7 | – | > 160 | 5.02 | 4.26 | – | 5.40
8 | CC(=N/O)/C(C)=N\N=C1/NC(=O)/C(=C/c2ccc(Cl)cc2)S1 [Compound 14] | > 160 | 3.85 | >1.1 | – | – | – | – | – | – | – | – | –
9 | CC(=N/O)/C(C)=N\N=C1/NC(=O)/C(=C/c2ccc(C#N)cc2)S1 [Compound 11] | – | – | 14.5 | 2.3 | – | 1.8 | – | 53.2 | 5.44 | 4.65 | – | 4.53
10 | COc1ccc(C=C2SC(=NN=C(C)C(C)=NO)NC2=O)cc1 [Compound 12] | 40.3 | 5.41 | 10.2 | 3.8 | 4.98 | 6.9 | 5.24 | – | – | – | – | –
11 | CC(=NO)C(C)=NN=C1NC(=O)/C(=C/c2ccccc2O)S1 [Compound 9] | – | – | >25.9 | >14.9 | – | >164.9 | – | > 160 | 5.21 | 4.97 | – | 6.05
12 | CC(=N/O)/C(C)=N\N=C1/NC(=O)/C(=C/c2ccc(O)c(O)c2)S1 [Compound 13] | > 160 | 5.06 | >18.1 | >0.6 | – | >8.0 | 4.70 | – | – | – | – | –
13 | COc1cc(C2=NNC(c3ccc(Cl)cc3)C2)ccc1O (stereo not shown) [Compound 2] | 123 | – | 73.3 | 16.4 | 5.12 | 18.6 | 5.18 | – | – | – | – | –
14 | COc1cc(C2=NNC(c3ccc4c(c3)OCO4)C2)ccc1O (stereo not shown) [Compound 4] | 154 | – | 42.6 | 28.9 | 5.28 | 4.8 | 4.50 | – | – | – | – | –
